Reference: patent US20250213701A1, “MEDICAMENT FOR TREATING HUMAN TUMOR BASED ON ERF3A-TARGETING PROTEOLYSIS MECHANISM” (SUZHOU DEGEN BIO-MEDICAL CO., LTD., priority 2022, published 2025)

Tests used:
Format in all cases: cell-based, human
VCaP cells = assay: Anti-proliferative toxicity against prostate cancer cell line Vcap (CCK8); details: Homo sapiens, 72 h, 3 days, CCK8
Procedure: (§1) Example 82: Detection of Anti-Proliferative Toxicity Against Prostate Cancer Cell Lines Vcap, 22Rv1, and PC-3
(§2) Vcap cells (purchased from the Cell Bank of the Chinese Academy of Sciences, Cat. No. SCSP-5034) were subcultured in a culture medium (DMEM medium+1% penicillin-streptomycin dual-antibiotic solution+10% fetal bovine serum) in an incubator at 5% carbon dioxide and 37° C. 22Rv1 cells (purchased from the Cell Bank of the Chinese Academy of Sciences, Cat. No. TCHu100) were subcultured in a culture medium (RPMI-1640 medium+1% penicillin-streptomycin dual-antibiotic solution+10% fetal bovine serum) in an incubator at 5% carbon dioxide and 37° C.
VCap cells were seeded at 20000 cells/well (90 μL) on a 96-well plate and cultured for 72 h. The original medium was removed, and a new medium of 90 μL was added.
(§3) 10 mM compound stock solutions were prepared in DMSO.
For VCap cells, the compound stock solution was diluted with DMSO to give DMSO solutions 1-10 at concentrations of 0 μM, 80 μM, 16 μM, 3.2 μM, 1.5 μM, 0.5 μM, 0.15 μM, 0.05 μM, 0.025 μM, and 0.0005 μM.
For Vcap cells, 2 μL of each of the above solutions 1-10 was added to 98 μL of Vcap medium to give mixed solutions 20-29 of the compound and the medium.
For Vcap cells, 10 μL of each of the above solutions 20-29 was added to the above cell seed solution to give a total volume of 100 μL (90 μL+10 μL), where the concentrations of the compound in wells were 0 μM, 0.16 μM, 0.032 μM, 0.006 μM, 0.003 μM, 0.001 μM, 0.0003 μM, 0.0001 μM, 0.00005 μM, and 0.00001 μM. All concentrations were in triplicate.
(§4) After the above-treated cells were cultured for 3 days, 10 μL of the CCK8 solution (DOJINDO, Cat. No. PF725) was added to each well. The plate was incubated in an incubator at 37° C. for 1-4 h and then detected on a microplate reader for the reading at 450 nm.

PC-3 cells = assay: Anti-proliferative toxicity against prostate cancer cell line PC-3 (CCK8); details: Homo sapiens, 72 h, 3 days
Procedure: as §1
PC-3 cells (purchased from the Cell Bank of the Chinese Academy of Sciences, Cat. No. SCSP-532) were subcultured in a culture medium (F12K medium+1% penicillin-streptomycin dual-antibiotic solution+10% fetal bovine serum) in an incubator at 5% carbon dioxide and 37° C.
PC-3 cells were seeded at 4000 cells/well (90 μL) on a 96-well plate and cultured for 24 h.
as §3
(§5) For 22Rv1 cells and PC-3 cells, the compound stock solution was diluted with DMSO to give DMSO solutions 11-19 at concentrations of 0 μM, 500 μM, 100 μM, 20 μM, 4 μM, 0.8 μM, 0.16 μM, 0.032 μM, 0.0064 μM.
For PC-3 cells, 2 μL of each of the above solutions 11-19 was added to 98 μL of PC-3 medium to give mixed solutions 39-47 of the compound and the medium.
(§6) For 22Rv1 and PC-3 cells, 10 μL of each of the above solutions 30-38 or 39-47 was added to the above cell seed solution to give a total volume of 100 μL (90 μL+10 μL), where the concentrations of the compound in wells were 0 μM, 1.0 μM, 0.2 μM, 0.04 μM, 0.008 μM, 0.0016 μM, 0.00032 μM, 0.00006 μM, and 0.00001 μM. All concentrations were in triplicate.
as §4

22Rv1 cells = assay: Anti-proliferative toxicity against prostate cancer cell line 22Rv1 (CCK8); details: Homo sapiens, 72 h, 3 days, CCK8
Procedure: as §1, §2
22Rv1 cells were seeded at 5000 cells/well (90 μL) on a 96-well plate and cultured for 48 h.
as §3, §5
For 22Rv1 cells, 2 μL of each of the above solutions 11-19 was added to 98 μL of 22Rv1 medium to give mixed solutions 30-38 of the compound and the medium.
as §6, §4

Row | SMILES | IC50 (VCaP cells) | IC50 (PC-3 cells) | IC50 (22Rv1 cells)
1 | C[C@]12C=CC(=O)N[C@@H]1CC[C@@H]1[C@@H]2CC[C@]2(C)[C@@H](C(=O)Nc3ccc(OCCNc4cccc5c4C(=O)N(C4CCC(=O)NC4=O)C5=O)cc3)CC[C@@H]12 (stereo partly drawn) [C15, N-(4-((2-((4-(2-(3-(2,6-dioxopiperidine))-isoindole-1,3-dione))amino)ethyl)oxy)phenyl)-3-oxo-4-aza-5α-androst-1-ene-17β-carboxamide] | 10 to 1000 nM | > 1000 nM | > 1000 nM
2 | C[C@]12C=CC(=O)N[C@@H]1CC[C@@H]1[C@@H]2CC[C@]2(C)[C@@H](C(=O)Nc3cccc(OCCNc4cccc5c4C(=O)N(C4CCC(=O)NC4=O)C5=O)c3)CC[C@@H]12 (stereo partly drawn) [C27, N-(3-((2-((4-(2-(3-(2,6-dioxopiperidine))-isoindole-1,3-dione))amino)ethyl)oxy)phenyl)-3-oxo-4-aza-5α-androst-1-ene-17β-carboxamide] | 10 to 1000 nM | > 1000 nM | > 1000 nM
3 | C[C@]12C=CC(=O)N[C@@H]1CC[C@@H]1[C@@H]2CC[C@]2(C)[C@@H](C(=O)Nc3ccc(OCCCNc4ccc5c(c4)C(=O)N(C4CCC(=O)NC4=O)C5=O)cc3)CC[C@@H]12 (stereo partly drawn) [C18, N-(4-((3-((5-(2-(3-(2,6-dioxopiperidine))-isoindole-1,3-dione))amino)propyl)oxy)phenyl)-3-oxo-4-aza-5α-androst-1-ene-17β-carboxamide] | > 1000 nM | > 1000 nM | > 1000 nM
4 | C[C@]12C=CC(=O)N[C@@H]1CC[C@@H]1[C@@H]2CC[C@]2(C)[C@@H](C(=O)Nc3cccc(OCC4CCN(c5cccc6c5C(=O)N(C5CCC(=O)NC5=O)C6=O)CC4)c3)CC[C@@H]12 (stereo partly drawn) [C42, N-(3-((4-methyl-1-(4-(2-(3-(2,6-dioxopiperidine))-isoindole-1,3-dione))-piperidinyl)oxy)phenyl)-3-oxo-4-aza-5α-androst-1-ene-17β-carboxamide] | > 1000 nM | > 1000 nM | > 1000 nM
5 | C[C@]12C=CC(=O)N[C@@H]1CC[C@@H]1[C@@H]2CC[C@]2(C)[C@@H](C(=O)Nc3ccc(OCCCCCCNc4ccc5c(c4)C(=O)N(C4CCC(=O)NC4=O)C5=O)cc3)CC[C@@H]12 (stereo partly drawn) [C22, N-(4-((6-((5-(2-(3-(2,6-dioxopiperidine))-isoindole-1,3-dione))amino)hexyl)oxy)phenyl)-3-oxo-4-aza-5α-androst-1-ene-17β-carboxamide] | > 1000 nM | > 1000 nM | > 1000 nM
6 | C[C@]12C=CC(=O)N[C@@H]1CC[C@@H]1[C@@H]2CC[C@]2(C)[C@@H](C(=O)Nc3ccc(OCCCCCNc4ccc5c(c4)C(=O)N(C4CCC(=O)NC4=O)C5=O)cc3)CC[C@@H]12 (stereo partly drawn) [C20, N-(4-((5-((5-(2-(3-(2,6-dioxopiperidine))-isoindole-1,3-dione))amino)pentyl)oxy)phenyl)-3-oxo-4-aza-5α-androst-1-ene-17β-carboxamide] | > 1000 nM | > 1000 nM | > 1000 nM
7 | C[C@]12C=CC(=O)N[C@@H]1CC[C@@H]1[C@@H]2CC[C@]2(C)[C@@H](C(=O)Nc3cccc(OCCCCCCCNc4cccc5c4C(=O)N(C4CCC(=O)NC4=O)C5=O)c3)CC[C@@H]12 (stereo partly drawn) [C37, N-(3-((7-((4-(2-(3-(2,6-dioxopiperidine))-isoindole-1,3-dione))amino)heptyl)oxy)phenyl)-3-oxo-4-aza-5α-androst-1-ene-17β-carboxamide] | > 1000 nM | > 1000 nM | > 1000 nM
8 | C[C@]12C=CC(=O)N[C@@H]1CC[C@@H]1[C@@H]2CC[C@]2(C)[C@@H](C(=O)Nc3ccc(OCCCCCCCCNc4cccc5c4C(=O)N(C4CCC(=O)NC4=O)C5=O)cc3)CC[C@@H]12 (stereo partly drawn) [C25, N-(4-((8-((4-(2-(3-(2,6-dioxopiperidine))-isoindole-1,3-dione))amino)octyl)oxy)phenyl)-3-oxo-4-aza-5α-androst-1-ene-17β-carboxamide] | > 1000 nM | > 1000 nM | > 1000 nM
